From patent US12594292B2, “Antiviral prodrugs, intermediate-and long-acting formulations and methods” (priority 2022, dated 2026)
Like-named read-outs stand apart in the source and are kept apart here.

Legend:
human PBMCs = experiment: Cytotoxicity (CC50) in human PBMCs; assay type: cell-based
HFF cells = experiment: Persistence of TFVpp in HFF cells after a 3 day exposure
Source text: HFF cells were exposed to 1 micromolar drug for 3 days. At days 0, 1, 2, 4, 7, 14, 21, and 28, cells were trypsinized, counted, and processed for LC/MS measurement of TFVpp. Data were expressed at ftg/cell. nm=not meaningful; ftg—gemtogram.

HIV-1 [1] = settings: for EC50: HIV infected human PBMCs
Description: (§1) Antiviral activities were determined in HIV infected human PBMCs.

[2] = Cytotoxicity (CC50) in human PBMCs; assay type: cell-based; settings: human PBMCs
HIV-1 [3] = experiment: microbe, parasite or virus in culture; settings: Human immunodeficiency virus 1, PBMC
Description: as §1

Calu 3 = experiment: Antiviral evaluation of cyanobenzyl analogs, Calu 3; assay type: cell-based; settings: Calu 3
Huh7.5 = experiment: Antiviral evaluation of cyanobenzyl analogs, Huh7.5; assay type: cell-based
HCoV-229E = assay type: cell-based, human Coronavirus 229E
SARS-CoV-2 [4] = experiment: SARS-CoV-2 infection assay in Huh7.5 cells, nucleocapsid immunofluorescence (Example 6); assay type: cell-based; settings: MOI 0.1, 48 hours
Huh7.5 cells = experiment: Cytotoxicity in Huh7.5 cells, nuclei count (Example 6); assay type: cell-based, human; settings: Huh7.5 cells; read-out: CC50
SARS-CoV-2 [5] = experiment: SARS-CoV-2 infection assay in TMPRSS2-Vero cells, nucleocapsid immunofluorescence (Example 6); assay type: cell-based; settings: MOI 0.01, 32 hours
TMPRSS2-Vero cells = experiment: Cytotoxicity in TMPRSS2-Vero cells, nuclei count (Example 6); assay type: cell-based; settings: TMPRSS2-Vero cells; read-out: CC50
SRV A2 strain of RSV = experiment: RSV infection in Hep-2 cells, CPE reduction; assay type: cell-based, respiratory syncytial virus; settings: RSV A2 in Hep-2 cells, 72 to 96 hours
Description: Methods: The SRV A2 strain of RSV was obtained from the ATCC. Ten thousand Hep-2 cells were seeded into each well of a 96-well plate in EMEM with 10% fetal bovine serum and 1% penicillin and streptomycin. Each well was inoculated with 100 TCID50 of virus. Two hours later wells were washed once with medium and serial four-fold dilutions of candidate antiviral drugs were added.

Hep-2 cells = experiment: Cell viability assay for the RSV table (CC50); assay type: cell-based; settings: Hep-2 cells; read-out: CC50
Calu-3 cells = experiment: Cytotoxicity in Calu-3 cells, nuclei count or CellTiter-Glo (Example 6); settings: for select compounds up to 100 μM by CellTiter-Glo
Description: After which an equal volume of CellTiter-Glo reagent (Cat. #G7570, Promega, Madison, WI) was added, mixed and luminescence recorded on a Veritas Microplate Luminometer (Turner BioSystems) according to manufacturer recommendations.

[6] = variation of the diester substituent of ODE-TFV, read-out: CC50
[7] = HFF cells, 1 micromolar drug for 3 days
[8] = variation of the diester substituent of ODE-TFV

## CCCCCCCCCCCCCCCCCCOCCOP(=O)(CO[C@H](C)Cn1cnc2c(N)ncnc21)OCC (stereo partly drawn) [ODE-Et-TFV]
Human PBMCs; [6]
  CC50: 5.37 µM
HFF cells; [7]
  Cmax of TFVpp: 0.91 ftg/cell
  Tmax of TFVpp: 0 h
HIV-1 [1]; [8]
  Selectivity Index: 95
  EC50: 0.057 µM

## CCCCCCCCCCCCCCCCCCOCCOP(=O)(OCc1ccccc1)OC[C@H]1O[C@@H](n2cc(F)c(N)nc2=O)CS1 (stereo partly drawn) [ODE-Bn-P-Emtricitabine, Octadecyloxyethyl benzyl-phospho-emtricitabine]
[2]
  CC50: 54.7 ± 45.3 µM
HIV-1 [1]; CC50/EC50
  Selectivity Index: 2989
HIV-1 [3]
  EC50: 0.0183 ± 0.0087 µM

## CCCCCCCCCCCCCCCCCCOC[C@H](COP(=O)(O)OC[C@H]1O[C@@](C#N)(c2ccc3c(N)ncnn23)[C@@H](O)C1O)OCc1ccc(C#N)cc1 (stereo partly drawn) [OD(4-CN-Bn)G-P-RVn, 1-O-Octadecyl-2-O-(4-cyanobenzyl)-sn-glyceryl-phospho-RVn]
Calu 3
  SI: 1400
Calu 3; read-out: EC50
  EC50: 0.043 ± 0.013 µM
Calu 3; read-out: EC90
  EC90: 0.082 ± 0.022 µM
Huh7.5
  SI: 1966
Huh7.5; read-out: EC50
  EC50: 0.024 ± 0.002 µM
Huh7.5; read-out: EC90
  EC90: 0.07 ± 0.01 µM

## CCCCCCCCCCCCCCCCCCOCCOP(=O)(CO[C@H](C)Cn1cnc2c(N)ncnc21)OCc1ccc(C)cc1 (stereo partly drawn) [ODE-4MeBN-TFV]
Human PBMCs
  CC50: 3.41 µM
HFF cells
  T1/2 of TFVpp: 3.1
  Tmax of TFVpp: 0 h
HIV-1 [1]; [8]
  Selectivity Index: 1620
  EC50: 0.0021 µM

## CCCCCCCCCCCCCCCCCCOCCOP(=O)(CO[C@H](C)Cn1cnc2c(N)ncnc21)OC (stereo partly drawn) [ODE-Me-TFV]
Human PBMCs; [6]
  CC50: 2.98 µM
HFF cells; [7]
  Cmax of TFVpp: 9.3 ftg/cell
  T1/2 of TFVpp: 2.0
  T1/10 of TFVpp: 11.3
  Tmax of TFVpp: 0 h
HIV-1 [1]; [8]
  Selectivity Index: 677
  EC50: 0.0052 µM

## CCCCCCCCCCCCCCCCCCOCCOP(=O)(CO[C@H](C)Cn1cnc2c(N)ncnc21)OCc1cccc(C)c1 (stereo partly drawn) [3-methyl benzyl]
Human PBMCs; [6]
  CC50: 3.86 µM
HIV-1 [1]; [8]
  Selectivity Index: 1210
  EC50: 0.0032 µM

## CCCCCCCCCCCCCCCCCCOC[C@H](COP(=O)(O)OC[C@H]1O[C@@](C#N)(c2ccc3c(N)ncnn23)[C@H](O)[C@@H]1O)OCc1ccc(OC)c(F)c1 [Compound 15j, 1-O-Octadecyl-2-O-(3-fluoro-4-methoxy-benzyl)-sn-glyceryl-phospho-RVn]
HCoV-229E
  EC50: 0.074 ± 0.01 µM
  EC90: 0.17 ± 0.014 µM
SARS-CoV-2 [4]
  EC50: 0.056 µM
  EC90: 0.222 µM
Huh7.5 cells
  CC50: > 20 µM
SARS-CoV-2 [5]
  EC50: 0.174 µM
  EC90: 0.341 µM
TMPRSS2-Vero cells
  CC50: > 20 µM
SRV A2 strain of RSV
  EC50: 0.01 µM
  EC90: 0.019 µM
Hep-2 cells
  CC50: 9.6 µM
MRC-5 cells
  CC50: > 50 µM
Calu-3 cells
  CC50: 50.6 ± 5.42 µM
